Measured values published in BigSolDB 2.1.

Details: in water

O=C(O)CCCC(=O)O
Details | solubility (mole fraction)
288.05 K | 0.125
292.95 K | 0.151
297.85 K | 0.176
303.25 K | 0.204
308.05 K | 0.232
312.95 K | 0.26
318.05 K | 0.297
322.25 K | 0.328
326.75 K | 0.361
330.85 K | 0.4
